This note sets out measurements from ChEMBL document CHEMBL1201862, “PubChem BioAssay data set” (2004).

Holding throughout (format): functional
Assay [1] deals with Melanin-concentrating hormone receptor 1 (Homo sapiens, UniProt Q99705). Briefly: Late-stage fluorescence-based counterscreen for antagonists of the G-protein coupled receptor 7 (GPR7): cell-based dose response assay to identify antagonists of the melanin-concentrating hormone receptor 1 (MCHR1) Set 5.
For assay [2], the target named is Neuropeptides B/W receptor type 1 (Homo sapiens, UniProt P48145). Briefly: human NPBW1 receptor blockade, IC50 – cell-based, fluorescence, dose response, set 5, late-stage follow-up (AID 588566).
Sequence of Neuropeptides B/W receptor type 1 (P48145 whole entry): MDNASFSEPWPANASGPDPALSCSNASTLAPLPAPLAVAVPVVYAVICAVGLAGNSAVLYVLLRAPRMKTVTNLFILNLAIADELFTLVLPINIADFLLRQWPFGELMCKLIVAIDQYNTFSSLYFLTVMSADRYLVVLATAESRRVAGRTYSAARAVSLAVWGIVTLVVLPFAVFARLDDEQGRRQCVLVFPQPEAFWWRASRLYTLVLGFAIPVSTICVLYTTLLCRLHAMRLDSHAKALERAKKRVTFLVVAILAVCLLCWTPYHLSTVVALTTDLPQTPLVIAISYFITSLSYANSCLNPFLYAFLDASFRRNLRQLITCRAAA
Assay [3] is described as follows: THP-1 cell cytotoxicity, cytotoxicity control, set 4 (AID 504911). The settings on record: Mycobacterium tuberculosis.
The nature of assay [4]: Vero cell cytotoxicity, dose response, cytotoxicity control for M. tuberculosis growth inhibitor project, Vero cells, purified and synthesized compounds, set 5 (AID 504909). The following applies: Mycobacterium tuberculosis.

Molecules are shown by their SMILES. Active and inactive are the calls of the source.

Sequence of Melanin-concentrating hormone receptor 1 (Q99705 whole entry): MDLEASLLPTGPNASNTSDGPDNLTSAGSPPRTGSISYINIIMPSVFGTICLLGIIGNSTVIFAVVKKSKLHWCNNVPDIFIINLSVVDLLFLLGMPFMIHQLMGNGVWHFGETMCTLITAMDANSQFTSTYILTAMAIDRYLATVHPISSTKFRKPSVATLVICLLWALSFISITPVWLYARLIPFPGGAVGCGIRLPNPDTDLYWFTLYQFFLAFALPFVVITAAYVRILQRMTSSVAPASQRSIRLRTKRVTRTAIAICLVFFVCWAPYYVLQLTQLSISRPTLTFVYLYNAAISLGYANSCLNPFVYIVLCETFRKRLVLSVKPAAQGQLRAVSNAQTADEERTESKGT

In the case of `COc1ccc(Oc2c(Cl)cnn(CC(=O)C(C)(C)C)c2=O)cc1`, the IC50 in assay [1] and in assay [2] was > 20 µM (inactive) throughout.
Consider `CO[C@H]1/C=C/O[C@@]2(C)Oc3c(C)c(O)c4c(O)c(c(C=NN5CCN(C)CC5)c(O)c4c3C2=O)NC(=O)/C(C)=C\C=C\[C@H](C)[C@H](O)[C@@H](C)[C@@H](O)[C@@H](C)[C@H](OC(C)=O)[C@@H]1C` [RIFAMPIN], for which the figures for the cytotoxic concentration (CC50) in assay [3] and in assay [4] were 79.7 µM (active) and > 100 µM (active), respectively.
